From patent publication US20260166045A1, “COMBINATION THERAPY COMPRISING GSPT1-DIRECTED MOLECULAR GLUE DEGRADERS AND PI3K/AKT/mTOR PATHWAY INHIBITORS” (Monte Rosa Therapeutics, Inc., priority 2022, published 2026)

System: MCF7 xenografts
Test: MCF7 cell-derived xenograft (CDX) in vivo combination study
Design: species or system BALB/c nude mice
Conditions: compound 1-1 10 mg/kg; for Δ TV ratio to vehicle group (A/C, B/C, (AB)/C): day 28, Clarke method; for Δ TV (delta tumor volume): p.o. qd for 28 days, average of four tumors
Description: […] (0.36 mg) pellets (Innovative Research of America Cat. No.: SE-121, pellet size: 3.0 mm) were implanted 2-3 days before cell inoculation.
Compound 1-1 was formulated every day freshly as a solution in 5% DMSO/95% (30% w/v HPβCD in water). This formulation was also used as vehicle control. Everolimus was formulated as a suspension in 1% MC (400 cps), which was prepared every 3 days.
Body weights were measured at the same time.
An approximation of drug interactions was made using the method described by Clarke (Clarke et al. 1997. Breast Cancer Res Treat. 46(2-3):255-78). This was applied to […] and can estimate interactions from limited data. In short, for compound A, B, or the combination AB (with control group C), antagonism is predicted when (AB)/C>(A/C)×(B/C), an additive effect is predicted when (AB)/C=(A/C)×(B/C), and synergistic interaction is predicted to occur when (AB)/C<(A/C)×(B/C). Calculations in Table 10B indicate that the interaction of everolimus and compound 1-1 in the MCF7 CDX model is synergistic.
17β-Estradiol (0.36 mg) pellets (Innovative Research of America Cat. No.: SE-121, pellet size: 3.0 mm) were implanted 2-3 days before cell inoculation.
Compound 1-1 was formulated every day freshly as a solution in 5% DMSO/95% (30% w/v HPβCD in water). This formulation was also used as vehicle control. Alpelisib was formulated as a solution in 20% captisol+80% water (pH adjusted to 4), which was prepared every week.

## O=C1CCC(N2Cc3ccc(COC(=O)Nc4cc(OC(F)(F)F)ccc4F)cc3C2=O)C(=O)N1 (stereo not drawn) [Compound 1-1, [2-(2,6-dioxopiperidin-3-yl)-3-oxo-2,3-dihydro-1H-isoindol-5-yl]methyl N-[2-fluoro-5-(trifluoromethoxy)phenyl]carbamate]
Day 28, ANOVA with post hoc Tukey's test, alpelisib 50 mg/kg, p.o. qd
  anti-tumor effect compared to vehicle: significant anti-tumor effect
Day 28, ANOVA with post hoc Tukey's test, everolimus 2 mg/kg, p.o. qd
  antitumor effect vs vehicle (tumor volume): statistically significant antitumor effects
Alpelisib 50 mg/kg, p.o. qd
  Δ TV ratio to vehicle group (A/C, B/C, (AB)/C): 0.35
Everolimus 2 mg/kg, p.o. qd
  Δ TV ratio to vehicle group (A/C, B/C, (AB)/C): 0.35
Day 28, alpelisib 50 mg/kg, combination 50 + 10 mg/kg
  Δ TV (delta tumor volume): 216 mm^3
Day 28, everolimus 2 mg/kg, combination 2 + 10 mg/kg
  Δ TV (delta tumor volume): 216 mm3
